Legend:
DGKα = biological target: T1, DGKα (Homo sapiens, UniProt P23743); assay: In vitro DGKα inhibition assay (ADP-Glo); assay type: biochemical; conditions: His-tagged human recombinant enzyme, 0.1 nM DGKα, 50 μM ATP, 20 μM DLG, 90 minute incubation
T1 construct: His; purchased Signal Chem D21-10BH
Procedure: (§1) The DGKα and DGKζ biochemical reactions were performed using His-tagged human recombinant enzymes (Signal Chem, DGKα, #D21-10BH; DGKζ, #D30-10H)) and DLG (Dilauroyl-sn-glycerol) lipid substrate (Signal Chem, #D430-59). ADP-Glo assay was performed using ADP-Glo™ kinase Assay kit (Promega, #V9104). The reactions were carried out in assay buffer containing 40 mM Tris, pH 7.5, 0.1% CHAPS, 0.1% Prionex, 40 mM NaCl, 5 mM MgCl2, 1 mM CaCl2, and 1 mM DTT. DGKα reactions contained 0.1 nM DGKα, 50 μM ATP, and 20 μM DLG. And DGKζ reactions contained 0.4 nM DGKζ, 30 μM ATP, and 20 μM DLG.
(§2) For compound inhibition studies, 40 nL test compound in DMSO was added to wells of white polystyrene plates in 384-well (Greiner, #784075) or 1536-well format (Greiner, #782075). Compounds were added with top concentration of 2 mM with 11 point, 3-fold dilution series. Enzyme solution (contains 2×DGK enzyme concentration in 1× assay buffer) was added to the plate in 2 μL/well volume, followed by 2 μL/well of substrate solution (contains 2× concentration of ATP and DLG substrate in 1× assay buffer). Plates were then centrifuged for 1 min at 1200 RPM and sealed or lidded. For 4 μL reaction volume, test compounds were therefore diluted 100× to final top concentration of […]. After 90 minute incubation, reactions were quenched by addition of 2 μL/well Promega ADP-Glo Reagent, followed by centrifugation and lidding. After 60 min incubation, 2 μL/well Promega Kinase Detection Reagent was added, plates centrifuged, and incubated for 30 min. Plates were then read using Luminescence method on BMG PHERAstar FSX plate reader. Percent inhibition was calculated and IC50s were determined using 4-parameter fit in Genedata Screener. Labcyte Echo acoustic dispenser was used for compound addition, and Formulatrix Tempest liquid handler was used for all reagent dispenses. The compounds of the disclosure were tested in one or more of the assays described above, and the resulting data are shown in Table A.

DGKζ = biological target: T2, DGKζ (Homo sapiens, UniProt Q13574); assay: In vitro DGKζ inhibition assay (ADP-Glo); assay type: biochemical; conditions: His-tagged human recombinant enzyme, 0.4 nM DGKζ, 30 μM ATP, 20 μM DLG, 90 minute incubation
T2 construct: His; purchased Signal Chem D30-10H
Procedure: as §1, §2

T1 sequence (P23743 whole entry): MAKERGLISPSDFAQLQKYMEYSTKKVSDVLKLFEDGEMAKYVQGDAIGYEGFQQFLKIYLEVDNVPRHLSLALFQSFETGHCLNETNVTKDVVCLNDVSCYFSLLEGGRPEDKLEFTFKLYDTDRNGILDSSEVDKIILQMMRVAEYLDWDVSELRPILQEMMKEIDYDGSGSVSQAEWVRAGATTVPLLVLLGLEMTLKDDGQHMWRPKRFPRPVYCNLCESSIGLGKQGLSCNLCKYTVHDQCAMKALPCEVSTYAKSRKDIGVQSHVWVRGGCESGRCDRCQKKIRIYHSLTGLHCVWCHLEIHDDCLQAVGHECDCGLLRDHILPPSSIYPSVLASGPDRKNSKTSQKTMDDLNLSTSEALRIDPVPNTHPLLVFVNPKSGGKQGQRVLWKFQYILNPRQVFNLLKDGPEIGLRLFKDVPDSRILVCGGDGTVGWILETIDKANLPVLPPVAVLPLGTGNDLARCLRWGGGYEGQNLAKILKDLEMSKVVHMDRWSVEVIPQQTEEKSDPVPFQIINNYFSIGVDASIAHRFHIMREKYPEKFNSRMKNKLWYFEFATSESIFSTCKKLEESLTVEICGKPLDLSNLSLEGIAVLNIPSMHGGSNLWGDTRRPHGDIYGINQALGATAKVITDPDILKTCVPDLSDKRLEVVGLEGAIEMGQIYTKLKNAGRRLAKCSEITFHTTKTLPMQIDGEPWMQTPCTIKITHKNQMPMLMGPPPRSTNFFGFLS
T2 sequence (Q13574 whole entry): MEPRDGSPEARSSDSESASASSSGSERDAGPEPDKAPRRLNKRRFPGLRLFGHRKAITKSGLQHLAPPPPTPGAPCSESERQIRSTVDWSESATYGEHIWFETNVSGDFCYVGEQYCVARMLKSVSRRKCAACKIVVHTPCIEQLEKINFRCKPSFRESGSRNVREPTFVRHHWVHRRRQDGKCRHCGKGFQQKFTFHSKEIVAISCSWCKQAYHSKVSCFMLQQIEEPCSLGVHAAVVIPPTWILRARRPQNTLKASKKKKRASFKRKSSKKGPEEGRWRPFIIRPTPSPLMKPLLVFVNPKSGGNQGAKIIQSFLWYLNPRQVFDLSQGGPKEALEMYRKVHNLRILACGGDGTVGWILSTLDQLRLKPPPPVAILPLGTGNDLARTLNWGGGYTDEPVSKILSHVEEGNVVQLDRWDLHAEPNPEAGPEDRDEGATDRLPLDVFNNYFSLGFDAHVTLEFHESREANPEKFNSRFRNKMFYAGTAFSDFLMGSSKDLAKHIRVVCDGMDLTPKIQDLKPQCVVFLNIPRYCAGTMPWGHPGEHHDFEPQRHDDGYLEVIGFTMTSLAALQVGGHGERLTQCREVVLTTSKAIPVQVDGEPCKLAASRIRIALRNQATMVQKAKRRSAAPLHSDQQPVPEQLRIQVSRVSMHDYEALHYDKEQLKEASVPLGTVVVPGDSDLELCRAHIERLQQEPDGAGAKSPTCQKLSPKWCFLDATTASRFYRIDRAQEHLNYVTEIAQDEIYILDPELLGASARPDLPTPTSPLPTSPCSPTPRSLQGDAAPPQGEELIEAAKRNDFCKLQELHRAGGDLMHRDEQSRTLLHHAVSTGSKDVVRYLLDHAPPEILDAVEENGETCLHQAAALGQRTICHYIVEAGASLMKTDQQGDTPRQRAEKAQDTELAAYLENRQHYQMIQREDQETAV

Structure (SMILES) | IC50 (DGKα) [nM] | IC50 (DGKζ) [nM]
CN(c1c(/C=C(\F)c2csc(-c3ccnnc3)n2)ccc(Oc2ccccc2F)c1C(F)(F)F)[C@H]1CCNC[C@H]1F [Example 4, (3R,4S)-3-Fluoro-N-(6-((Z)-2-fluoro-2-(2-(pyridazin-4-yl)thiazol-4-yl)vinyl)-3-(2-fluorophenoxy)-2-(trifluoromethyl)phenyl)-N-methylpiperidin-4-amine] | 20 to 200 | 20 to 200
CCN1CCC2(CC1)CN(c1c(/C=C(\F)c3csc(-c4ccnnc4)n3)ccc(Oc3ccccc3)c1C(F)(F)F)CCO2 [Example 6, (Z)-9-Ethyl-4-(6-(2-fluoro-2-(2-(pyridazin-4-yl)thiazol-4-yl)vinyl)-3-phenoxy-2-(trifluoromethyl)phenyl)-1-oxa-4,9-diazaspiro[5.5]undecane] | 20 to 200 | ≤ 20
F/C(=C\c1ccc(OC2CCC2)c(C(F)(F)F)c1N1CCOC2(CCNCC2)C1)c1csc(-c2ccnnc2)n1 [Example 7, (Z)-4-(3-Cyclobutoxy-6-(2-fluoro-2-(2-(pyridazin-4-yl)thiazol-4-yl)vinyl)-2-(trifluoromethyl)phenyl)-1-oxa-4,9-diazaspiro[5.5]undecane] | ≤ 20 | 20 to 200
F/C(=C\c1ccc(Oc2cccc(F)c2F)c(C(F)(F)F)c1N1CCCC2(CCNCC2)C1)c1csc(-c2cnsc2)n1 [Example 8, (Z)-4-(4-(2-(4-(2,3-Difluorophenoxy)-2-(2,9-diazaspiro[5.5]undecan-2-yl)-3-(trifluoromethyl)phenyl)-1-fluorovinyl)thiazol-2-yl)isothiazole] | ≤ 20 | 20 to 200
F/C(=C\c1ccc(Oc2ccccc2)c(C(F)(F)F)c1N1CCCC2(CCNCC2)C1)c1csc(N2CCC(F)(F)C2)n1 [Example 9, (Z)-2-(3,3-Difluoropyrrolidin-1-yl)-4-(1-fluoro-2-(4-phenoxy-2-(2,9-diazaspiro[5.5]undecan-2-yl)-3-(trifluoromethyl)phenyl)vinyl)thiazole] | 20 to 200 | 200 to 2000
F/C(=C\c1ccc(Oc2cccc(F)c2F)c(C(F)(F)F)c1N1CCCC2(CCN(CC3CC3)CC2)C1)c1ccn(-c2ccnnc2)n1 [Example 10, (Z)-9-(Cyclopropylmethyl)-2-(3-(2,3-difluorophenoxy)-6-(2-fluoro-2-(1-(pyridazin-4-yl)-1H-pyrazol-3-yl)vinyl)-2-(trifluoromethyl)phenyl)-2,9-diazaspiro[5.5]undecane] | 20 to 200 | ≤ 20

Continued, values first:

IC50 (DGKα) [nM] | IC50 (DGKζ) [nM] | Structure (SMILES)
≤ 20 | ≤ 20 | NC[C@@H]1CCCN(c2c(/C=C(\F)c3csc(-c4ccnnc4)n3)ccc(Oc3ccccc3F)c2C(F)(F)F)C1 [Example 1, (S,Z)-(1-(6-(2-Fluoro-2-(2-(pyridazin-4-yl)thiazol-4-yl)vinyl)-3-(2-fluorophenoxy)-2-(trifluoromethyl)phenyl)piperidin-3-yl)methanamine]
≤ 20 | ≤ 20 | NC[C@@H]1CCCN(c2c(/C=C(\F)c3ccn(-c4ccnnc4)n3)ccc(Oc3ccccc3F)c2C(F)(F)F)C1 [Example 2, (S,Z)-(1-(6-(2-Fluoro-2-(1-(pyridazin-4-yl)-1H-pyrazol-3-yl)vinyl)-3-(2-fluorophenoxy)-2-(trifluoromethyl)phenyl)piperidin-3-yl)methanamine]
≤ 20 | ≤ 20 | COc1cc(F)ccc1Oc1ccc(/C=C(\F)c2csc(-c3ccnnc3)n2)c(N2CCC[C@@H](CN)C2)c1Cl [Example 3, (S,Z)-(1-(2-Chloro-6-(2-fluoro-2-(2-(pyridazin-4-yl)thiazol-4-yl)vinyl)-3-(4-fluoro-2-methoxyphenoxy)phenyl)piperidin-3-yl)methanamine]
≤ 20 | ≤ 20 | F/C(=C\c1ccc(Oc2ccccc2)c(C(F)(F)F)c1N1CCOC2(CCNCC2)C1)c1csc(-c2ccnnc2)n1 [Example 5, (Z)-4-(6-(2-Fluoro-2-(2-(pyridazin-4-yl)thiazol-4-yl)vinyl)-3-phenoxy-2-(trifluoromethyl)phenyl)-1-oxa-4,9-diazaspiro[5.5]undecane]
